Reference: patent US20210361731A1 (Phenolics, LLC, priority 2020, published 2021)

How the values were obtained:
[1] = test system: brain aging; details: 1 g daily, 12 weeks; cited from earlier work
[2] = test system: vegetarian subjects; details: 5 g/day for six weeks; cited from earlier work
[3] = test system: patients with dementia disorders; details: 1570 patients in 10 studies; cited from earlier work
[4] = test system: Caco2 monolayer; assay: Permeability of α-GPC through a Caco2 monolayer in the presence and absence of blueberry polyphenol extract; assay type: in vitro ADME; design: cumulative L-α-GPC, averaged over runs: scale not given here; details: for cumulative L-α-GPC, averaged over runs: average of runs 1 and 2; for cumulative L-α-GPC: 5 mM α-GPC in DPBS alone or with 1 mg/ml blueberry polyphenol extract
Experimental: In another series of experiments, the permeability of α-GPC through a Caco2 monolayer was measured to determine whether the presence of a blueberry-based polyphenol extract affected permeability.
More particularly, donor GPC concentrations were reduced to 5 mM. […] This experiment consisted of two independent runs (as identified below as run 1 and run 2). […] The data from the runs is summarized in Table 2, illustrated in FIG. 2 (Total Alpha GPC permeability through a Caco2 monolayer) and averaged below in Table 3. The averaged data is illustrated in FIG. 3. In each of the graphs, the vertical axis units are cumulative L-α-GPC in μg/cm2 and the horizontal axis units are minutes.

[5] = 100-300 mg/day; cited from earlier work
[6] = test system: rats; details: 250 mg/kg injections for three weeks, three weeks after pilocarpine; cited from earlier work
[7] = test system: hippocampus of the rats; details: cited from earlier work
[8] = test system: patients with probable senile dementia of Alzheimer's type; details: cited from earlier work
[9] = test system: cognitive impairment due to Alzheimer's disease; details: 400 mg capsules three times daily; cited from earlier work

Q: With `NC(=O)CN1CC(O)CC1=O` (centres unmarked) [oxiracetam] as the molecule, how does the “clinical response in brain aging” value [1] read?
A: early improvement which was maintained during the therapy but was rapidly attenuated after discontinuation of the therapy

Q: For `CN(CC(=O)O)C(=N)N` [creatine], which “working memory and intelligence” value [2] is on record?
A: Positive results

Q: Which “patient clinical results, cognitive symptoms of adult-onset dementia disorders” value [3] does the source give for `C[N+](C)(C)CCOP(=O)([O-])OC[C@H](O)CO` [α-GPC, Alpha-glycerylphosphorylcholine] here?
A: improved patient clinical results

Q: What about the “effect of α-GPC on permeation of the blueberry polyphenols through the Caco2 monolayer” value [4] of the same molecule?
A: did not significantly change

Q: And the “cumulative L-α-GPC, averaged over runs” value ([4]; 15 min)?
A: 0.128 μg/cm2

Q: What about the “cumulative L-α-GPC, averaged over runs” value ([4]; 30 min) of the same molecule?
A: 0.471 μg/cm2

Q: And the “cumulative L-α-GPC, averaged over runs” value ([4]; 45 min)?
A: 0.643 μg/cm2

Q: What about the “cumulative L-α-GPC, averaged over runs” value ([4]; 60 min) of the same molecule?
A: 0.815 μg/cm2

Q: What about the “cumulative L-α-GPC, averaged over runs” value ([4]; 75 min) of the same molecule?
A: 1.017 μg/cm2

Q: What about the “cumulative L-α-GPC, averaged over runs” value ([4]; 90 min) of the same molecule?
A: 1.292 μg/cm2

Q: And the “cumulative L-α-GPC” value ([4]; run 1, 15 min)?
A: 18.75 μg/cm2

Q: And the “cumulative L-α-GPC” value ([4]; run 1, 30 min)?
A: 41.37 μg/cm2

Q: And the “cumulative L-α-GPC” value ([4]; run 1, 45 min)?
A: 67.92 μg/cm2

Q: What about the “cumulative L-α-GPC” value ([4]; run 1, 60 min) of the same molecule?
A: 103.2 μg/cm2

Q: What about the “cumulative L-α-GPC” value ([4]; run 1, 75 min) of the same molecule?
A: 150.0 μg/cm2

Q: What about the “cumulative L-α-GPC” value ([4]; run 1, 90 min) of the same molecule?
A: 222.4 μg/cm2

Q: And the “cumulative L-α-GPC” value ([4]; run 2, 15 min)?
A: 47.16 μg/cm2

Q: And the “cumulative L-α-GPC” value ([4]; run 2, 30 min)?
A: 200.9 μg/cm2

Q: And the “cumulative L-α-GPC” value ([4]; run 2, 45 min)?
A: 262.8 μg/cm2

Q: What about the “cumulative L-α-GPC” value ([4]; run 2, 60 min) of the same molecule?
A: 316.1 μg/cm2

Q: And the “cumulative L-α-GPC” value ([4]; run 2, 75 min)?
A: 373.3 μg/cm2

Q: What about the “cumulative L-α-GPC” value ([4]; run 2, 90 min) of the same molecule?
A: 442.1 μg/cm2

Q: What about the “memory, concentration, and focus” value [5] of the same molecule?
A: helps maintain and improve

Q: And the “peak power and force output during strenuous exercises” value [5]?
A: helps to increase

Q: And the cognitive function [6]?
A: improved

Q: And the neurogenesis [6]?
A: increased

Q: And the “clinical response in brain aging” value [1]?
A: slower but more sustained

Q: What about the “acetylcholine release in the hippocampus” value ([7]; 75 mg/kg i.g.) of the same molecule?
A: able to increase acetylcholine release

Q: And the “dose with maximum effect on acetylcholine release” value ([7]; i.g.)?
A: 300 mg/kg

Q: What about the “improvements compared with the ST200 patients” value ([8]; ST200 1000 mg morning and 500 mg afternoon) of the same molecule?
A: significantly better

Q: What about the “intellectual and emotional impairments” value ([8]; oral 800 mg morning and 400 mg afternoon, six months) of the same molecule?
A: significantly improved

Q: What about the “treatment of the cognitive symptoms of Alzheimer's disease” value [9] of the same molecule?
A: useful
